Where two headings read alike, the source gives them in different places.
Legend:
[1] = tested on: HSV-1, strain Angelotti; test: Antiviral efficacy, plaque number in Calu-6 cells infected with HSV-1; format: cell-based; details: addition of cyclodextrin 1:1 or 1:2 to D609, Calu-6 cells, 72 h
Procedure: Human lung carcinoma cells (Calu-6) in D-MEM medium (supplemented with 10% fetal calf serum) were seeded in 24-well plates (Greiner) (3×10^6 cells/plate each). After incubation for 24 h at 37° C. in a 5% CO2 atmosphere, the medium was decanted and 0.1 ml viral suspension (HSV-1, strain Angelotti, 200 plaque-forming units/ml) were added. After incubation at 37° C. for one hour, fresh medium (DMEM, 10% serum, 0.85 g NaHCO3/I) containing D609 (exo/exo isomer) or a mixture of D609 and beta-hydroxypropyl-cyclodextrin (b-HP) (Sigma, Munich, No 33, 260-7) was added.
The following concentrations were set-up:
After 72 h, the medium was decanted and the plates were fixed with 3% formalin and stained with 0.5% crystal violet. After the plates were dried, the number of plaques per well was determined and the means±standard deviation were calculated. The results (dose-response curves) are plotted in FIG. 4. […] Accordingly, the addition of beta-hydroxypropyl-cyclodextrin has no influence on the antiviral activity of D609.

[2] = Stabilization of various xanthates by methyl-beta-cyclodextrin at 60° C. (decomposition in water, detected by pH value and calibration curves); details: 24 h at 60° C.; for % Decomposition − Cyclodextrin / % Decomposition + Cyclodextrin: 10 mg/ml xanthate in water; for % Decomposition − Cyclodextrin: absence of cyclodextrin; for % Decomposition + Cyclodextrin: presence of 100 mg/ml methyl-beta-cyclodextrin; for Stabilization factor: decomposition without / with methyl-beta-cyclodextrin
Procedure: Solutions each containing 10 mg/ml methylxanthate, propylxanthate, butylxanthate, heptyixanthate, hexylxanthate, decylxanthate, isopropylxanthate, or tricyclo[5,2,1,0^2,6]-decylxanthate (D 609) in water were incubated for 24 h at 60° C. either in the presence or absence of 100 mg/ml methyl-beta-cyclodextrin. Xanthates decompose in aqueous medium into the corresponding alcohol, CS2, and, depending on the type of xanthate salt, KOH or NaOH. The decomposition of xanthates can therefore be detected quantitatively by measuring the pH value and using calibration curves.

[3] = tested on: lung edemas; details: from literature; cited from earlier work
[4] = tested on: erythrocytes; test: Hemolytic effect of xanthates (OD 450 of supernatants of diluted blood); details: for 50% hemolysis (IC50): 30 minutes at room temperature
Procedure: Venous blood was taken from female Balb C mice by retroorbital puncture and heparin was added to the blood. The blood was then diluted 1:75 using phosphate-buffered saline. Methyl-, butyl, and hexylxanthate as well as exo/exo D 609 were dissolved in phosphate-buffered saline (stock solution 10 mg/ml). 100 μl diluted blood and 100 μl diluted xanthate solution each were placed in 96-well microtiter plates to obtain final concentrations of 2, 1, 0.5, 0.25, 0.125, 0.063, and 0.031 mg/ml of xanthate. Saline served as the control. After incubation at room temperature for 30 minutes, a centrifugation at 5,000 g for 5 min was performed and the supernatants were removed. The absorption of the supernatants at 450 nm (OD 450) was measured using an ELISA-Reader. Dose-response curves (FIGS. 2 and 3) were used to determine the concentrations at which 50% of the maximal absorption was reached and at which, therefore, 50% of the erythrocytes were lysed (IC50).

[5] = tested on: female Balb C mice; test: Toxicity after intravenous application (survival 48 h after injection into the lateral tail vein); format: in vivo; details: for Animals receiving injections/surviving animals: 48 h
Procedure: The exo/exo isomer of D 609 or hexylxanthate were dissolved in 0.9% NaCl or 0.9% NaCl/30% hydroxy-beta-cyclodextrin at a concentration of 30 mg/ml. Subsequently, dilutions were prepared using 0.9% NaCl solution to obtain concentrations of 30, 20, 10, and 5 mg/ml D 609 or hexylxanthate. Three female Balb C mice each received injections of 0.2 ml/20 g body weight of each solutions into the lateral tail vein. The animals were monitored for 48 h after injection and survival was recorded.

[6] = Stabilization of exo/exo D 609 by cyclodextrin at room temperature (decomposition in water, pH after 45 days); format: physicochemical; details: for decomposition / pH value of the solution: after 45 days
Procedure: The xanthate, D 609, decomposes in aqueous solutions to form the tricyclodecanol, CS2, and KOH. […] The pH value of the individual solutions was determined after 45 days using PANPEHA strips (Schleicher & Schüll). […] The pH value of the solution containing cyclodextrin was measured to be 7.0. This corresponds to <0.1% decomposition. Accordingly, the rate of decomposition is at least 1000-fold lower in the presence of cyclodextrin.

[7] = tested on: models of Alzheimer's disease; details: from literature; cited from earlier work
[8] = tested on: animal model of stroke; details: from literature; cited from earlier work
[9] = tested on: DNA and RNA virus species; tumor cells; details: from literature and U.S. Pat. No. 4,602,037; cited from earlier work
[10] = tested on: multiple sclerosis model; details: from literature; cited from earlier work
[11] = Stabilization effect of different cyclodextrins on D 609 at 60° C. (RP-18 thin layer plate); format: physicochemical; details: exo/exo D 609 with cyclodextrin, eight days at 60° C., TLC spots under UV (FIG. 1)
Procedure: Exo/exo D 609 was dissolved in solutions (100 mg/ml) containing various cyclodextrins (10 mg/ml). The samples were incubated for eight days at 60° C. 10 μl of each sample were diluted with 90 μl of water and 100 μl ethylacetate/3 mg/ml p-bromoacetophenone were added. After shaking for 30 minutes, 5 μl of the ethylacetate phase each were applied to a RP-18 thin layer plate and the plate was placed for 15 minutes in a TLC chamber containing acetonitrile as mobile phase. A freshly prepared solution of 9 mg/ml D 609 plus 1 mg/ml of a D 609 solution that had been incubated at 95° C. for 48 h (decomposition control) was used as calibration sample. The D 609-specific spots were visualized under UV light and photographed.

[12] = in the presence of cyclodextrin
[13] = xanthate alone (absence of cyclodextrin)
[14] = 10 mg/ml in water with 100 mg/ml cyclodextrin

Q: Which “influence on the antiviral activity of D609” value [1] does the source give for beta-hydroxypropyl-cyclodextrin here?
A: Its value is “no influence”.

Q: Which “% Decomposition − Cyclodextrin” value [2] does the source give for `CCOC(=S)S` [Ethyl] here?
A: The value was 10%.

Q: And the “% Decomposition + Cyclodextrin” value [2]?
A: Its value is 1%.

Q: What about the Stabilization factor [2] of the same compound?
A: The Stabilization factor was 10.

Q: With `CCCCCCCCCCOC(=S)S` [Decyl, decylxanthate] as the compound, how does the “% Decomposition − Cyclodextrin” value [2] read?
A: The value was 10%.

Q: And the “% Decomposition + Cyclodextrin” value [2]?
A: Its value is 1%.

Q: For `CC(C)OC(=S)S` [Isopropyl, isopropylxanthate], which “% Decomposition − Cyclodextrin” value [2] is on record?
A: Its value is 20%.

Q: And the “% Decomposition + Cyclodextrin” value [2]?
A: The value was 1%.

Q: What about the Stabilization factor [2] of the same compound?
A: The Stabilization factor was 20.

Q: With `S=C([S-])OC1CC2CC1C1CCCC21.[K+]` (stereo not drawn) [D 609] as the compound, how does the “% Decomposition − Cyclodextrin” value [2] read?
A: The value was 20%.

Q: What about the “% Decomposition + Cyclodextrin” value [2] of the same compound?
A: Its value is 1%.

Q: And the “effect on lung edemas” value [3]?
A: Its value is “protection from lung edemas”.

Q: And the “concentration of complete hemolysis” value [4]?
A: The value was 500 µg/mL.

Q: What about the “hemolytic effect / dose-response curves in the presence versus absence of cyclodextrin” value [4] of the same compound?
A: The value was “reduced strongly”.

Q: What about the “increase of the IC50 by a factor” value [4] of the same compound?
A: Its value is 6.4.

Q: What about the “50% hemolysis (IC50)” value ([4]; absence of cyclodextrin) of the same compound?
A: The value was 125 µg/mL.

Q: And the “50% hemolysis (IC50)” value ([4]; presence of cyclodextrin)?
A: Its value is 800 µg/mL.

Q: What about the “Animals receiving injections/surviving animals” value ([5]; Dose 50 mg/kg) of the same compound?
A: Its value is 3/3.

Q: And the “Animals receiving injections/surviving animals” value ([5]; Dose 100 mg/kg)?
A: The value was 3/0.

Q: What about the “Animals receiving injections/surviving animals” value ([5]; Dose 200 mg/kg) of the same compound?
A: The value was 3/0.

Q: What about the “Animals receiving injections/surviving animals” value ([5]; Dose 300 mg/kg) of the same compound?
A: The value was 3/0.

Q: What about the “number of surviving animals, effect of cyclodextrin” value ([5]; at the higher D 609-doses) of the same compound?
A: The value was “clearly increased”.

Q: And the LD50 [5, 12]?
A: Its LD50 is 250 mg/kg.

Q: What about the LD50 [5, 13] of the same compound?
A: Its LD50 is 75 mg/kg.

Q: And the decomposition ([6]; 10 mg/ml in pure water)?
A: The decomposition was “complete decomposition”.

Q: And the “pH value of the solution” value ([6]; 10 mg/ml in pure water)?
A: The value was 12.5.

Q: And the decomposition [6, 14]?
A: Its decomposition is under 0.1%.

Q: What about the “pH value of the solution” value [6, 14] of the same compound?
A: Its value is 7.0.

Q: And the “rate of decomposition lower in the presence of cyclodextrin” value ([6]; 45 days, with versus without cyclodextrin)?
A: The value was “at least 1000 fold”.

Q: And the “effect in models of Alzheimer's disease” value [7]?
A: The value was “protective properties”.

Q: And the “effect in an animal model of stroke” value [8]?
A: Its value is “protective effect”.

Q: What about the known activity [9] of the same compound?
A: Its known activity is “antiviral and antitumoral activity”.

Q: What about the “effect in a multiple sclerosis model” value [10] of the same compound?
A: Its value is “protective effect”.

Q: Which “% Decomposition − Cyclodextrin” value [2] does the source give for `COC(=S)S` [Methyl, methylxanthate] here?
A: Its value is 50%.

Q: What about the “% Decomposition + Cyclodextrin” value [2] of the same compound?
A: Its value is 1%.

Q: What about the Stabilization factor [2] of the same compound?
A: The Stabilization factor was 50.

Q: What about the “hemolytic effect / dose-response curves in the presence versus absence of cyclodextrin” value ([4]; FIGS. 2 and 3) of the same compound?
A: The value was “no significant differences”.

Q: What about the “concentration of complete hemolysis” value ([4]; absence of cyclodextrin) of the same compound?
A: Its value is 1000 µg/mL.

Q: What about the “50% hemolysis (IC50)” value ([4]; absence of cyclodextrin) of the same compound?
A: The value was 600 µg/mL.

Q: What about the “concentration of complete hemolysis” value ([4]; presence of cyclodextrin) of the same compound?
A: The value was 1000 µg/mL.

Q: What about the “50% hemolysis (IC50)” value ([4]; presence of cyclodextrin) of the same compound?
A: The value was 650 µg/mL.

Q: What does the source list for `CCCCCCOC(=S)S` [Hexylxanthate, hexylxanthate]?
A: % Decomposition − Cyclodextrin [2]: 20%; % Decomposition + Cyclodextrin [2]: 1%; concentration of complete hemolysis [4]: 500 µg/mL; hemolytic effect / dose-response curves in the presence versus absence of cyclodextrin [4]: reduced strongly; increase of the IC50 by a factor [4]: 2.5; 50% hemolysis (IC50) ([4]; absence of cyclodextrin): 300 µg/mL; 50% hemolysis (IC50) ([4]; presence of cyclodextrin): 750 µg/mL; Animals receiving injections/surviving animals ([5]; Dose 50 mg/kg): 3/3; Animals receiving injections/surviving animals ([5]; Dose 100 mg/kg): 3/2; Animals receiving injections/surviving animals ([5]; Dose 200 mg/kg): 3/0; Animals receiving injections/surviving animals ([5]; Dose 300 mg/kg): 3/0; LD50 [5, 12]: 130 mg/kg; LD50 [5, 13]: 130 mg/kg

Q: Which results are given for `CCCCOC(=S)S` [Butyl, butylxanthate]?
A: % Decomposition − Cyclodextrin [2]: 20%; % Decomposition + Cyclodextrin [2]: 1%; Stabilization factor [2]: 20; hemolytic effect / dose-response curves in the presence versus absence of cyclodextrin ([4]; FIGS. 2 and 3): no significant differences; concentration of complete hemolysis ([4]; absence of cyclodextrin): 1000 µg/mL; 50% hemolysis (IC50) ([4]; absence of cyclodextrin): 800 µg/mL; concentration of complete hemolysis ([4]; presence of cyclodextrin): 1000 µg/mL; 50% hemolysis (IC50) ([4]; presence of cyclodextrin): 650 µg/mL

Q: For `CCCOC(=S)S` [Propyl, propylxanthate], which “% Decomposition − Cyclodextrin” value [2] is on record?
A: The value was 20%.

Q: What about the “% Decomposition + Cyclodextrin” value [2] of the same compound?
A: The value was 2%.

Q: What about the Stabilization factor [2] of the same compound?
A: Its Stabilization factor is 10.

Q: Which “protective effect from decomposition of D 609” value [11] does the source give for methyl-beta-cyclodextrin here?
A: Its value is “works the best by far”.

From patent publication US8435966B2, “Associations of xanthogenates and cyclodextrins, and their use” (Biosphings AG, priority 2006, dated 2013)
